Consider 20 molecules from US8871463B2, “Method for screening a glutamate release inhibitor in an astrocyte” (Korea Institute of Science and Technology, priority 2012, dated 2014).

Test [1] concerns astrocyte. Put plainly: Fura-2 Ca2+ imaging of astrocyte during sniffer patch. It is filed as cell-based, mouse. The conditions noted are these: for TFLLR-induced astrocytic Ca2+ transient: TFLLR 500 μM, 100 ms. As for the experimental part:
On the day of sniffer-patch, cultured astrocytes (HEK cells added) were incubated with 5 μM Fura-2 AM (mixed with 5 μl of 20% Pluronic acid) (Invitrogen) for 40 min and washed at room temperature, and subsequently transferred to a microscope stage for imaging. External solution contained (in mM): 150 NaCl, 10 Hepes, 3 KCl, 2 CaCl2, 2 MgCl2, 5.5 glucose, pH adjusted to pH 7.3 and osmolarity to 325 mOsmol kg^−1. Intensity images of 510 nm wavelength were taken at 340 nm and 380 nm excitation wavelengths using either iXon EMCCD (DV887 DCS-BV, ANDOR technology). Two resulting images were used for ratio calculations in Axon Imaging Workbench version 6.2 (Axon Instruments). GluR1LY-mediated currents were recorded from HEK cells expressing GluR1L497Y under voltage clamp (Vh=−70 mV) using Multiclamp 700B amplifier (Molecular Devices), acquired with pClamp 9.2. Recording electrodes […] were filled with (mM): 110 Cs-Gluconate, 30 CsCl, 0.5 CaCl2, 10 Hepes, 4 Mg-ATP, 0.3 Na3-GTP and 10 BAPTA (pH adjusted to 7.3 with CsOH and osmolarity adjusted to 290-310 mOsm/kg with sucrose). For simultaneous recording, Imaging Workbench was synchronized with pClamp 9.2.

Test [2] relates to astrocyte. It is filed as cell-based, mouse.
In test [3] the test system is primary cultured astrocyte. It is filed as cell-based, mouse.
The next test addresses GluR1-L497Y (Homo sapiens, UniProt P42261, L497Y). It is filed as cell-based.

Entries after “also recorded” stand apart in the source; their conditions may differ. Where two headings read alike, the source gives them in different places.

Sequence of GluR1-L497Y (P42261 19-906 L497Y limits assumed): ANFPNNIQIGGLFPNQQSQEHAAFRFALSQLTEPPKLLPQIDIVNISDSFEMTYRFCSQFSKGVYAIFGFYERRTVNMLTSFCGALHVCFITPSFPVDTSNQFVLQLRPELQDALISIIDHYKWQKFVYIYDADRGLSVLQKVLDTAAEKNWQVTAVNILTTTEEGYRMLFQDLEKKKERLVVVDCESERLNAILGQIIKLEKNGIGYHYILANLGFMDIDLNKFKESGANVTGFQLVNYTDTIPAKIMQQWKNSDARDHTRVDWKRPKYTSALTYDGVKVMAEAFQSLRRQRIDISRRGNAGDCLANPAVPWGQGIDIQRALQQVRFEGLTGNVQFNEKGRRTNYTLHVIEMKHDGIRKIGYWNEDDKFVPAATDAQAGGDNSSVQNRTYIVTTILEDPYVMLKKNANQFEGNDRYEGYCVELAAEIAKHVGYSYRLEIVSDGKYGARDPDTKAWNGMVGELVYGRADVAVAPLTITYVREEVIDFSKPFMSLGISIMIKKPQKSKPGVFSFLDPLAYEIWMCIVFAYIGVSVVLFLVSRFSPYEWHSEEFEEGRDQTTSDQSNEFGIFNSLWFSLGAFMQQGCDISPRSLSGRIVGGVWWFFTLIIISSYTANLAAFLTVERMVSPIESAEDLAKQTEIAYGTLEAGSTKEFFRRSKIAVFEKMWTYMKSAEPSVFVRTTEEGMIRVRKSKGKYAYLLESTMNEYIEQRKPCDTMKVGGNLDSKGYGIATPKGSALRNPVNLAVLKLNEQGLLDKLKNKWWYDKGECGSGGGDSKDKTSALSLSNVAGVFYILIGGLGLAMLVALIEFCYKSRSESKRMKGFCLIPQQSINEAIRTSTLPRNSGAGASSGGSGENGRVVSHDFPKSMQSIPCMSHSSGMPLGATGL

With `CCCCC/C=C\C/C=C\C/C=C\C/C=C\CCCC(=O)NCCCl` [ACEA, N-(2-Chloroethyl)-5Z,8Z,11Z,14Z-eicosatetraenamide], the “astrocytic Ca2+ increase induced by the agent itself” value (from here on “astrocytic Ca2+ increase induced”) in the test with astrocyte [1] is listed as “without a measurable Ca^2+ increase”. In the test with astrocyte [2], the “fast-mode of glutamate release induced by the agent itself” value (“fast-mode of glutamate release induced” below) is given as “induces mainly fast-mode; also recorded: activated a fast-mode; also recorded: induce fast-mode” and the “slow-mode of glutamate release induced by the agent itself” value (from here on “slow-mode of glutamate release induced”) was “without a measurable Ca^2+ increase or a slow-mode”. For the molecule `CC(=O)OCOC(=O)CN(CC(=O)OCOC(C)=O)c1ccccc1OCCOc1ccccc1N(CC(=O)OCOC(C)=O)CC(=O)OCOC(C)=O` [BAPTA-AM, 1,2-bis-(o-inophenoxy)ethane-N,N,N′,N′-tetraacetic Acid Tetra-(acetoxymethyl) Ester], the “slow-mode of TFLLR-induced glutamate release” value in test [3] is recorded as “significantly reduced”. Also, the “TFLLR-induced astrocytic Ca2+ transient” value in the test with astrocyte [1] is listed as “completely block; also recorded: eliminated”. `[Ba+2]` [Ba^2+]: the “fast and slow-modes of TFLLR-induced glutamate release (TFLLR-induced GluR1L497Y-mediated current)” value (shortened to “fast and slow-modes”) in test [3] is “did not show any significant effect”. With `NCC(CC(=O)O)c1ccc(Cl)cc1` (centres unmarked) [Baclofen], the “astrocytic Ca2+ increase induced” value in the test with astrocyte [1] (pressure-applied 100 ms) is reported as “without a Ca^2+ transient”. Further, the “astrocytic Ca2+ increase induced” value in the test on astrocyte [1] (pressure-applied 100 ms, listed as baclofen) was “without a measurable Ca^2+ increase”. Moreover, in the test on astrocyte [2], the “fast-mode of glutamate release induced” value is recorded as “activated a fast-mode; also recorded: induces fast-mode” and the “slow-mode of glutamate release induced” value is “without a measurable Ca^2+ increase or a slow-mode”. As for `CC1(C)[C@@H](OC(=O)CCC(=O)O)CC[C@]2(C)[C@H]3C(=O)C=C4[C@@H]5C[C@@](C)(C(=O)O)CC[C@]5(C)CC[C@@]4(C)[C@]3(C)CC[C@@H]12` [CBX, Carbenoxolone], in test [3], the “fast and slow-modes” value is listed as “does not inhibit; also recorded: did not show any significant effect”. As to `OC[C@H]1O[C@@H](n2cnc3c(NC4CCCC4)nc(Cl)nc32)[C@H](O)[C@@H]1O` [CCPA, 2-chloro-N(6)-cyclopentyladenosine], in the test with astrocyte [1] (pressure-applied 100 ms), the “astrocytic Ca2+ increase induced” value is reported as “does not induce; also recorded: without a measurable Ca^2+ increase”. In addition, in the test on astrocyte [2], the “fast-mode of glutamate release induced” value is “induces mainly fast GluR1-mediated inward current; also recorded: activated a fast-mode; also recorded: induce fast-mode” and the “slow-mode of glutamate release induced” value is “without a measurable Ca^2+ increase or a slow-mode”.

`N#Cc1cc2c(cc1[N+](=O)[O-])=NC(=O)C(=O)N=2` [CNQX, 6-cyano-7-nitroquinoxaline-2,3-dione]: in test [3], the “fast and slow-modes” value is on record as “blocked”; the “fast-mode of TFLLR-induced glutamate release” value is “blocked”; the “slow-mode of TFLLR-induced glutamate release” value is reported as “blocked”. On to `C/C=C/[C@H]1O[C@@](O)([C@@H](C)[C@H](O)[C@H](C)[C@H]2OC(=O)/C(OC)=C/C(C)=C/[C@@H](C)[C@@H](O)[C@@H](CC)[C@@H](O)[C@H](C)C/C(C)=C/C=C/[C@@H]2OC)C[C@@H](O[C@H]2C[C@@H](O)[C@H](OC(N)=O)[C@@H](C)O2)[C@@H]1C` [Concanamycin A], for which the “fast and slow-modes” value in test [3] is “appeared to block”. Also, on GluR1-L497Y, the “1 mM glutamate-induced GluR1L497Y-mediated current of sensor cell” value was “reduced” and the “surface expression of GluR1-L497Y in the sensor cell” value is on record as “almost completely eliminated”. For `[Cs+]` [Cs^+], in test [3], the “fast and slow-modes” value was “did not show any significant effect”. For the molecule `CCCCC1(C2CCCC2)Cc2cc(OCCCC(=O)O)c(Cl)c(Cl)c2C1=O` (centres unmarked) [DCPIB, 4-(2-butyl-6,7-dichloro-2-cyclopentylindan-1-on-5-yl)oxybutyric acid], the “fast and slow-modes” value in test [3] was “did not show any significant effect”. As for `O=S(=O)(O)c1cc(N=C=S)ccc1C=Cc1ccc(N=C=S)cc1S(=O)(=O)O` [DIDS, 4,4′-Diisothiocyano-2,2′-stilbenedisulfonic acid], the “fast and slow-modes” value in test [3] was “inhibit; also recorded: blocked”. Turning to `CC(C)Cn1c(=O)n(C)c(=O)c2[nH]cnc21` [IBMX, 3-isobutyl-1-methylxanthine], the “fast-mode of TFLLR-induced glutamate release” value in test [3] is reported as “does not affect”. Regarding `O=C(O)c1cccnc1Nc1cccc(C(F)(F)F)c1` [NFA, Niflumic acid], the “fast and slow-modes” value in test [3] was “inhibit; also recorded: blocked”. Further, the “1 mM glutamate-induced GluR1L497Y-mediated current of sensor cell” value on GluR1-L497Y is recorded as “does not affect”. As to `O=C(O)c1cc([N+](=O)[O-])ccc1NCCCc1ccccc1` [NPPB, 5-Nitro-2-(3-phenylpropylamino)benzoic Acid], in test [3], the “fast and slow-modes” value is “blocked”. As to `CC[N+](CC)(CC)CC` [TEA], the “fast and slow-modes” value in test [3] is given as “did not show any significant effect”.

For `C=C[C@H]1C[N@@]2CC[C@H]1C[C@H]2[C@H](O)c1ccnc2ccc(OC)cc12` [quinine], in test [3], the “fast and slow-modes” value is “inhibit; also recorded: blocked”. As to “C-terminus of Phosducin: C-terminus of mouse phosducin (251-278 a.a., SEQ ID NO: 6), over-expressed; inhibits Gαi-Gβγ dissociation”, the “fast-mode of TFLLR-induced glutamate release” value in test [3] is “almost completely inhibited; also recorded: inhibition of the fast-mode”. In addition, the “TFLLR-induced astrocytic Ca2+ transient” value in the test with astrocyte [1] was “without affecting”; in the test on astrocyte [1] (listed as Phosducin C-terminal fragment), “do not inhibit”.

Take TFLLR-NH2: the “time from TFLLR to slow peak” value in test [3] (n=31) was 32.8 ± 2.6 s. Moreover, the “time from TFLLR to Ca2+ peak” value in the test on astrocyte [1] (n=31) is 10.8 ± 0.7 s. In addition, at GluR1-L497Y, the “GluR1-mediated current induced in sensor HEK cell without astrocyte” value is “does not induce”. On to “β-ARK-c term: C-terminus of Beta-adrenergic receptor kinase (SEQ ID NO: 5), over-expressed; inhibits Gβγ dissociation (WKKELRDAYREAQQLVQRVPKMKNKPRSVQRVPKMKNKPRS; B-Ark(Beta-adrenergic receptor kinase) C-terminus)”, for which the results for the “TFLLR-induced astrocytic Ca2+ transient” value in the test on astrocyte [1] and in the test on astrocyte [1] (listed as […]-ARK) were “do not inhibit” and “without affecting”, respectively.

B1: RGS-2: Regulatory G protein signaling 2, over-expressed; selectively inhibits the Gq subunit (protein, UniProt P41220 1-211, looked up)
Regulator of G-protein …: MQSAMFLAVQHDCRPMDKSAGSGHKSEEKREKMKRTLLKDWKTRLSYFLQNSSTPGKPKTGKKSKQQAFIKPSPEEAQLWSEAFDELLASKYGLAAFRAFLKSEFCEENIEFWLACEDFKKTKSPQKLSSKARKIYTDFIEKEAPKEINIDFQTKTLIAQNIQEATSGCFTTAQKRVYSLMENNSYPRFLESEFYQDLCKKPQITTEPHAT
With B1, the “TFLLR-induced astrocytic Ca2+ transient” value with astrocyte [1] is “greatly and significantly reduced; also recorded: selectively and significantly inhibited”.
